A word on the Ki: it is a dissociation constant, usually derived from enzyme kinetics or from competition with a known ligand. The low end stands for a stronger hold on the target, the high end for a looser hold on the target.

The results in this text go back to ChEMBL document CHEMBL1132466, “Asymmetric synthesis of 9-alkyl-2-benzyl-6,7-benzomorphans: characterization as novel sigma receptor ligands” (J Med Chem, 1999).

A short description of the experiment: Affinity against Sigma opioid receptor type 1 using [3H](+)-pentazocine in guinea pig brain membranes.

`C[C@@H]1[C@@H]2Cc3ccc(O)cc3[C@@]1(C)CCN2Cc1ccccc1` had a Ki of 0.67 nM.
